From patent publication US8440653B2, “3-substituted-1,4-diazepan-2-one melanocortin-5 receptor antagonists” (Mimetica Pty Ltd, priority 2008, dated 2013)
Read-outs that look alike come from different tables or passages of the source.

Experiments:
[1] = target: T1, human MC5R (hMC5R) (Homo sapiens, UniProt P33032); test: Human MC5R radioligand binding assay ([125I] NDP-MSH displacement)
T1 construct: purchased Perkin Elmer RBXMC5M400UA
Procedure: Assessments of compound binding to human MC5R (hMC5R) by displacement of an ^125I-labeled NDP-MSH receptor ligand peptide were performed essentially as described in the data sheets produced by Perkin Elmer to accompany their frozen hMC5R membranes (Perkin Elmer catalog number RBXMC5M400UA).
Na^125I (0.5 mCi, 17.4 Ci/mg) was added to 50 μL sodium phosphate (50 mM, pH 7.4) in an eppendorf tube precoated with IODOGEN. After incubation for 10 mins the phosphate buffer containing the iodine was added to NDP-MSH (10 ul at 1 mg/mL) in a separate eppendorf tube. This was incubated for a further 10 mins. The iodinated NDP-MSH was purified by HPLC on a Zorbax SB 300 column using solvent A: 0.05% TFA and solvent B: 90% acetonitrile 0.045% TFA with a linear gradient, 0-67% B over 60 mins. The ^125I NDP-MSH eluted at 52 min after the unlabeled starting material (48 min) and was counted and stored in the freezer.
Incubation buffer: 25 mM HEPES-KOH (pH 7.0), 1.5 mM CaCl2, 1 mM MgSO4, 0.1 M NaCl, 1 mM 1,10-phenanthroline, and 1 Complete™ protease inhibitor tablet/100 mL (Roche, catalog number 1873580)
Perkin Elmer frozen hMC5 membranes: catalog number RBXMC5M400UA, 0.4 mL/vial; 400 microassays/vial. 0.78 mg/mL protein concentration
Vials of frozen membranes were thawed rapidly immediately before use, diluted with binding buffer and vortexed. Resuspended membranes were kept on ice until they were added to the wells of the plate.
(§1) Assays were performed in 96 well polypropylene plates. […] This was incubated for 1 hr at 37° C. […] Non-specific binding just under 5%.
Representative compounds of the present invention were tested for binding in the hMC5R assay as in Example 46, as listed in Table 3. The compounds were tested as their trifluoroacetate or hydrochloride salts, or as their free bases.

[2] = target: T2, human MC1R (Homo sapiens, UniProt Q01726); test: Human MC1R radioligand binding assay; conditions: [125I] NDP-MSH
T2 construct: expressed in transfected cells; host or cells: transfected mammalian cells, if the membranes were in-house
T2 sequence (Q01726 whole entry): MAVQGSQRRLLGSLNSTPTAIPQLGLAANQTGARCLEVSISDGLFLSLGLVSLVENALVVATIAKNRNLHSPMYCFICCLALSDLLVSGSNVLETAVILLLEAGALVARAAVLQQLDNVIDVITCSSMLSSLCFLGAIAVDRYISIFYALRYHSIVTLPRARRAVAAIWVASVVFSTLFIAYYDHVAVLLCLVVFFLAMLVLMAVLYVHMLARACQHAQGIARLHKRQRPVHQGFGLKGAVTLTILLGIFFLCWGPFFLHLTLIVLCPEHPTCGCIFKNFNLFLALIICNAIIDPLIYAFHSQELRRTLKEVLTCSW
Procedure: as §1
(§2) Radioligand binding assays were carried out using commercial or in-house prepared hMC1R, hMC3R and hMC4R membranes and [^125I] NDP-MSH, as per hMC5R procedure in Example 46.
(§3) The homogenisation and ice incubation was repeated three times. The mixture was then centrifuged at 1260×g for 5 mins. […] This was centrifuged at 30,000×g for 90 mins at 4° C.

[3] = target: T3, human MC3R (Homo sapiens, UniProt P41968); test: Human MC3R radioligand binding assay; conditions: [125I] NDP-MSH
T3 construct: expressed in transfected cells; host or cells: transfected mammalian cells, if the membranes were in-house
T3 sequence (P41968 whole entry): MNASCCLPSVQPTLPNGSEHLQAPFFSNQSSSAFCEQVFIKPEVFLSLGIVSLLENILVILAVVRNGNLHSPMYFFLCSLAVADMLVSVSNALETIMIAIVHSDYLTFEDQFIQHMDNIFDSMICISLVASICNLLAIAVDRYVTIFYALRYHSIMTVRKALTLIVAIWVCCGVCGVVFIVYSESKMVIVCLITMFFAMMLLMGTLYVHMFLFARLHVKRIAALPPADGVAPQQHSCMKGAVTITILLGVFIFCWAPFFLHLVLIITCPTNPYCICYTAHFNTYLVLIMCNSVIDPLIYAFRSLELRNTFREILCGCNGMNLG
Procedure: as §1, §2, §3

[4] = target: T4, human MC4R (Homo sapiens, UniProt P32245); test: Human MC4R radioligand binding assay; conditions: [125I] NDP-MSH
T4 construct: expressed in transfected cells; host or cells: transfected mammalian cells, if the membranes were in-house
T4 sequence (P32245 whole entry): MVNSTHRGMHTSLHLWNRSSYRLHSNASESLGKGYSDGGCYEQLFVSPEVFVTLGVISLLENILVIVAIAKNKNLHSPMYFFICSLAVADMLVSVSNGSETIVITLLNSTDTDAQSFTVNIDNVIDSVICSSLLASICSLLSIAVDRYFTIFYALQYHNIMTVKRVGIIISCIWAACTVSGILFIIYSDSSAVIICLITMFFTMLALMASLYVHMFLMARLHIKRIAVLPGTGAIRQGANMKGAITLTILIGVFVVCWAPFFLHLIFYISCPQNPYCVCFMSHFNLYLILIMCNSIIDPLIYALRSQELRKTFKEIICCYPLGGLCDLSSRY
Procedure: as §1, §2, §3

[5] = target: T5, human MC5R (Homo sapiens, UniProt P33032); test: cAMP stimulation assay (agonism) in HEK 293 cells expressing human MC5R; assay type: cell-based; conditions: HEK 293 cells transiently expressing MC5R
T5 construct: host or cells: HEK 293, transient transfection
T5 sequence (P33032 whole entry): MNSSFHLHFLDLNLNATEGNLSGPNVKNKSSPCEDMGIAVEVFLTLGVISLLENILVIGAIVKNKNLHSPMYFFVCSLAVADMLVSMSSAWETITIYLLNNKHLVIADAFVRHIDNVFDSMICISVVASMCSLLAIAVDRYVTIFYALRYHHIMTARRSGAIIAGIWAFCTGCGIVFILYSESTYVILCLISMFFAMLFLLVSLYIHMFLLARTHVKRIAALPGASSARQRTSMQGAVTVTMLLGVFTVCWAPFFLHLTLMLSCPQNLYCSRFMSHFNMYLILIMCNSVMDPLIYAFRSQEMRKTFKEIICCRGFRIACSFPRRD
Procedure: (§4) HEK 293 cells transiently expressing the melanocortin MC5 receptor were suspended in stimulation buffer (Hanks buffered saline solution (HBSS), 0.1% bovine serum albumin, protease inhibitors and 0.5 mM 3-Isobutyl-1-methylxanthine) at 4×10^6 cells/mL. 5 μl of cells, plus the compounds/peptides as described below, were added to wells of a 384-well plate as soon as possible after resuspension.
To detect agonist activity, test compounds at varying concentrations were diluted in stimulation buffer at two times concentrate and 5 μl was added to wells containing cells. Positive control wells contained NDP-MSH or alpha-MSH alone (no compound) at two times concentrate
(§5) Basal level (of cAMP) control wells contained stimulation buffer only (no agonist or compounds). […] After incubation, 10 μl of lysis buffer (10% Tween 20, 1 M HEPES, 0.1% BSA, protease inhibitors, ddH2O) was added to all wells to be measured. […] 5 μl of diluted acceptor beads were added to each well to be measured, then the plate was incubated for 30 mins at room temperature, in the dark, with gentle shaking. […] Plates were read on an Envision plate reader (Perkin Elmer) after 1 hr and ˜16 hrs incubation. cAMP concentration in the cells was determined by the use of a ‘standard curve’ generated from the output of known cAMP concentrations as described below. […]

[6] = target: T5, human MC5R; test: cAMP assay (antagonism of alpha-MSH) in HEK 293 cells expressing human MC5R; assay type: cell-based; conditions: HEK 293 cells transiently expressing MC5R; 10^−6 M alpha-MSH
Procedure: as §4
To detect antagonist activity, test compounds at varying concentrations were diluted in stimulation buffer at four times concentrate and 2.5 μl was added to wells containing cells. 2.5 μl of a four times required concentration of NDP-MSH or alpha-MSH was added to all wells containing compounds. […]
as §5

[7] = target: T6, mouse MC5R (Mus musculus, UniProt P41149); test: MC5R radioligand binding assay, other species: mouse MC5R membranes; conditions: membranes from Euroscreen; read-out: mouse MC5R (membrane) IC50
T6 construct: purchased Euroscreen
T6 sequence (P41149 whole entry): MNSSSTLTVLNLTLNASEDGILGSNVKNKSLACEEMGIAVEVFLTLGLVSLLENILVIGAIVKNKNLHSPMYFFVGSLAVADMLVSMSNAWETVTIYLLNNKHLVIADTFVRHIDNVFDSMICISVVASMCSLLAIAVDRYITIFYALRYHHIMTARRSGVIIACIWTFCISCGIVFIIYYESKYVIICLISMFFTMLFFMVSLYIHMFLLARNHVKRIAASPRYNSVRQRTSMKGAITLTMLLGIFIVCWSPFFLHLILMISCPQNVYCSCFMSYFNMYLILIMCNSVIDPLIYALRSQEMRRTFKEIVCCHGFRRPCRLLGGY
Procedure: as §1
(§6) Representative compounds of the present invention were tested for binding to MC5R from other species, as in described in Example 48, the results are listed in Table 4.

[8] = target: T7, rhesus monkey MC5R (Macaca mulatta, UniProt A0A5F8AEA9); test: MC5R radioligand binding assay, other species: rhesus monkey MC5R membranes; conditions: membranes of cells expressing cloned receptor
T7 construct: expressed in transfected cells
T7 sequence (A0A5F8AEA9 1-325): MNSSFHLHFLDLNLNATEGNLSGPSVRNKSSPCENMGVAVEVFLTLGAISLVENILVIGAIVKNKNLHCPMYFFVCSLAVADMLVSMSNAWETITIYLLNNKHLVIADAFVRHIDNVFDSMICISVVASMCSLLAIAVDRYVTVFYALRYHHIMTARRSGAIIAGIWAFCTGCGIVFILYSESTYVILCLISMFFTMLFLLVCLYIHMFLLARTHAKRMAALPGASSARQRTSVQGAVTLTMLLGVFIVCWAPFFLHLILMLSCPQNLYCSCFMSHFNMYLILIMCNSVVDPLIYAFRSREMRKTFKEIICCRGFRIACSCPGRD
Procedure: as §1, §6

[9] = system: sebum excretion; conditions: oral isotretinoin, after 8-12 weeks of therapy; cited from earlier work
[10] = Table 5, hMCR binding selectivity, read-out: human MC5R IC50
[11] = hMC5R membranes, [125I] NDP-MSH, tested as trifluoroacetate or hydrochloride salts or free bases, read-out: MC5R radioligand IC50

T1 sequence (P33032 whole entry): as the sequence (P33032 whole entry) above

Row | IC50 [1, 10] [µM] | IC50 [1, 11] [µM] | IC50 [2] [µM] | IC50 [3] [µM] | IC50 [4] [µM] | EC50 [5] [µM] | IC50 [6] [µM] | IC50 ([1]; Table 4, membranes, read-out: human MC5R (membrane) IC50) [µM] | IC50 [7] [µM] | IC50 [8] [µM] | Compound | reduction of sebum excretion [9]
1 | 0.05 | < 0.1 | > 10 | 4.96 | > 10 | > 10 | 0.6 | – | – | – | CC[C@H](CN1CC[C@@H](CNC(=O)c2ccc3cc(Cl)ccc3c2)N[C@@H](CCC(=O)N2CCCCC2)C1=O)c1ccccc1 [Compound 66, 6-chloro-N-(((3S,5S)-2-oxo-3-(3-oxo-3-(piperidin-1-yl)propyl)-1-((S)-2-phenylbutyl)-1,4-diazepan-5-yl)methyl)-2-naphthamide] | –
2 | 0.03 | < 0.1 | > 10 | 3.05 | > 10 | > 10 | 6 | 0.03 | 2.3 | 3.76 | CC[C@H](CN1CC[C@@H](CNC(=O)c2ccc3cc(Cl)ccc3c2)N[C@@H](CCC(C)C)C1=O)c1ccccc1 [Compound 17, 6-chloro-N-(((3S,5S)-3-isopentyl-2-oxo-1-((S)-2-phenylbutyl)-1,4-diazepan-5-yl)methyl)-2-naphthamide] | –
3 | – | – | – | – | – | – | – | – | – | – | CC1=C(/C=C/C(C)=C/C=C/C(C)=C\C(=O)O)C(C)(C)CCC1 [isotretinoin, 13-cis-retinoic acid] | up to 90%
4 | – | < 10 | – | – | – | – | – | – | – | – | CC[C@H](CN1CC[C@@H](CNC(=O)c2ccc3cc(Cl)ccc3c2)N[C@@H](CC(C)C)C1=O)c1ccccc1 [Compound 79, 6-chloro-N-(((3S,5S)-3-isobutyl-2-oxo-1-((S)-2-phenylbutyl)-1,4-diazepan-5-yl)methyl)-2-naphthamide] | –
